From US12605384B2, “Uses” (INTRA-CELLULAR THERAPIES, INC., priority 2018, dated 2026)
Structures can show the parent of a compound that is named as a salt.

Tests used:
[1] = tested on: normal adult rabbit myocytes; assay: Contraction and calcium transients in isolated rabbit cardiomyocytes; format: cell-based; design: effect on contraction and calcium transients: dose or concentration left out as unconfirmed
Procedure: To test whether PDE1 inhibition directly impacts cardiomyocyte contraction and calcium transients, studies are carried out on normal adult rabbit myocytes. […] As PDE1 requires sufficient cAMP and Ca^2+ to be impactful, a dose response was performed to the adenylate cyclase activator, forskolin (FSK) to determine the lowest dose producing a modest but significant inotropic effect (1 μM).
Rabbit myocytes were isolated to determine the effect of PDE1 inhibition on cardiomyocyte contraction and whole cell Ca2+ transients, and to compare the results to those with a PDE3 inhibitor, cilostamide (Cil, 1 μM).

[2] = tested on: New Zealand White rabbits; assay: Pressure-volume hemodynamics in anesthetized rabbits; format: in vivo, rabbit; conditions: for hemodynamic effects: atrially paced
Excerpt: Cyclic AMP is generated largely by transmembrane adenylyl cyclases activated via stimulatory G protein (Gs), with β-adrenergic, adenosine (primarily […]), glucagon, prostanoids, histamine, and serotonin all coupling to Gs in cardiomyocytes. The present studies focus on beta-adrenergic and adenosine receptors, and for the latter, concentrated on the A2B receptor, which has been reported to directly stimulate cAMP-dependent contractility. […] Relaxation changes are also modest with LV preload (end-diastolic and volume) unaltered; however, the combined vasodilator-inotropic response doubled ventricular/arterial coupling ratio, Ees/Ea.
New Zealand White rabbits (male, 2-3 kg) are sedated with 35 mg/kg ketamine and 5 mg/kg xylazine, intubated and ventilated (Model 683, Harvard Apparatus, Holliston, MA), with anesthesia maintained with isoflurane inhalation (1-2%). A pressure-volume catheter (SPR-894, Millar, Inc., Houston, TX) is inserted via the common carotid artery and advanced to the LV apex, and a 2-Fr pacing catheter is positioned in the right atrium via the right jugular vein to provide atrial pacing. […] The parallel conductance is determined by the hypertonic saline injection method. Rabbits are infused with 6% hetastarch in saline during the procedure to stabilize arterial pressure.

[3] = tested on: normal and failing canine hearts; assay: Conscious pressure-volume hemodynamic analysis in dogs; format: in vivo, dog
Procedure: (§1) Dogs are studied in the conscious state before and after inducing dilated cardiomyopathy by tachypacing for two weeks at 200 bpm.
(§2) The study employs two doses, 0.01 and 0.1 mg/kg, the latter administered 30 minutes after the first.
Load insensitive indexes of contractility (dP/dtmax/IP and PRSW) increased.

[4] = Plasma Compound 1 levels in dogs (LC/MS-MS); format: in vivo, dog; conditions: normal dogs, 0.1 mg/kg i.v.
Procedure: as §1, §2
Intravenous blood is placed in K2EDTA tubes, centrifuged at 2,000 g for 15 min, plasma decanted, and stored frozen. Compound 1 levels are assessed by a rapid, sensitive liquid chromatography-tandem mass spectrometric (LC/MS-MS) method.
The mobile phase consists of a gradient of 60-100% methanol over 4.5 minutes in 5 mM ammonium bicarbonate with 0.2% NH3H2O, pumped at a flow rate of 0.8 mL/min. Analysis time is 4.5 min and both the analyte and internal standard eluted around 2.0 min. Multiple reactions monitoring (MRM) mode is used to detect Compound 1. MS is operated in the positive ion detection mode. […] Calibration curves are linear from 0.02-500 ng/mL in dog plasma sample matrices. The lower limit of quantification (LLOQ) for plasma was 0.02 ng/mL.

plasma cAMP and cGMP = assay: Plasma cAMP and cGMP by ELISA in dogs; format: in vivo, dog; conditions: for plasma cGMP: normal and HF models, all conditions
Procedure: Blood plasma is obtained from these animals, and cAMP and cGMP are assayed by ELISA.

myocyte cAMP = assay: Whole cell cAMP in rabbit myocytes; format: cell-based; conditions: for cAMP: added to Fsk; for whole cell cAMP: alone or combined with Iso
Excerpt: This is consistent with prior studies showing locally generated cAMP from β-AR and its modulation by PDE3 occur in local subcellular domains that are not easily detected in whole cell lysates32.

[5] = tested on: patients with stable chronic systolic HF; assay: Phase Ib/IIa single ascending dose study in human heart failure; format: in vivo
Procedure: (§3) A further group was administered placebo.
(§4) Hemodynamic monitoring began 30-60 minutes prior to the pre-dose echocardiogram through to 5-6 hours post-dose.
Supine and orthostatic blood pressure and heart rate were recorded pre-dose, as well as 60 and 40 minutes post-dose. Continuous electrocardiographic monitoring starting up to 30-60 minutes prior to the pre-dose echocardiogram through to 5-6 hours post-dose including measurement of ectopic arrhythmias pre- and post-dose.

[6] = Plasma pharmacokinetics in heart failure patients; format: in vivo, human; conditions: 10, 30, 90 mg
Procedure: as §3, §4

[7] = Compound 1 added after FSK 1 μM
[8] = continuous ECG monitoring to 5-6 hours post-dose

## CN1C(=O)c2c(nn(Cc3ccc(-c4cccc(F)n4)cc3)c2Nc2ccccc2)N2C1=N[C@@H]1CCC[C@@H]12 [Compound 1, (6aR,9aS)-2-(4-(6-fluoropyridin-2-yl)benzyl)-5-methyl-3-(phenyl-amino)-5,6a,7,8,9,9a-hexahydrocyclopenta-[4,5]imidazo[1,2-a]pyrazolo[4,3-e]pyrimidin-4-(2H)-one monophosphate]
[1]; Compound 1 1 μM alone
  percent sarcomere shortening, peak-Ca2+ transients and decay kinetics: not observed
[1]; Compound 1+FSK vs FSK for identical duration
  rise in sarcomere shortening versus time-control: exceeds that with FSK alone
[1]; [7]
  peak calcium transient: remains unaltered
  shortening and relaxation/calcium decay rates: significantly increases shortening and relaxation/calcium decay rates
[1]; Compound 1 alone
  effect on contraction and calcium transients: no effect
[1]; added to Fsk 1 μM
  Ca2+ transient decay: enhanced the Ca2+ decay rate similarly to Cil
  peak Ca2+ transient: no corresponding increase in peak Ca2+ transient
  sarcomere shortening: rose as with Cil
[1]; added to Iso
  peak-Ca2+: no longer significantly different from pre-Iso baseline
  sarcomere shortening: did not change further
[2]; 0.1 mg/kg i.v. bolus, alone
  LV preload: unaltered
  cardiac output: increases cardiac output
  heart rate: modestly elevated heart rate
  relaxation changes: modest
  systemic resistance: lowered systemic resistance
  systolic pressure: no change in systolic pressure
[2]; after esmolol
  contractile and vasodilation effects: remain intact
  heart rate: no longer increases HR
[2]; atrially paced at ~20% above sinus node rate
  hemodynamic responses: nearly identical responses
[2]; with MRS-1754
  hemodynamic effects: fully blocked by MRS-1754
[2]; with esmolol
  hemodynamic effects: unaltered by esmolol
[2]; with A2BR blocker MRS-1754
  cardiovascular responses to Compound 1 (heart rate, contractility, vasodilation): eliminated all of the cardiovascular responses
[3]; 0.1 mg/kg i.v.
  hemodynamic responses: positive chronotropic, inotropic, lusitropic, and vasodilator responses
[3]; i.v., heart failure dogs
  inotropy, lusitropy and vasodilation: remained significantly improved
[4]
  time of peak plasma concentration: within minutes
Plasma cAMP and cGMP; HF dogs, combination of dobutamine and Compound 1
  plasma cAMP: significantly higher
Plasma cAMP and cGMP
  plasma cGMP: remains unchanged
Myocyte cAMP; Compound 1 added to Fsk
  cAMP change as share of the maximal change with IBMX added to Fsk: about half
Myocyte cAMP
  cAMP: substantially increased by adding Compound 1
[5]; 30 mg
  systemic vascular resistance: greatest decrease
[5]; 30 mg and 90 mg
  effective arterial elastance (Ea): decreased
[5]; all cohorts (10, 30, 90 mg single oral dose)
  systemic vascular resistance: significantly decrease systemic vascular resistance
[5]; all dose amounts, versus placebo
  mean arterial blood pressure: decrease mean arterial blood pressure versus placebo
[5]; [8]
  atrial fibrillation or atrial flutter: none of the patients developed atrial fibrillation or atrial flutter
  sustained supraventricular or ventricular tachycardia: no patient developed sustained supraventricular or ventricular tachycardia
  ventricular proarrhythmia: no evidence of ventricular proarrhythmia
[5]; patients with systolic heart failure (HFrEF)
  safety and tolerability: safe and well tolerated
[5]; throughout the testing period
  blood pressures and heart rates: remained stable
[6]
  area under curve: increasing with dose escalation

## CC(C)Cn1c(=O)n(C)c(=O)c2[nH]cnc21 [IBMX, reference compound]
[1]; IBMX 100 μM
  peak calcium transients: did not alter peak calcium transients
  shortening and contraction/calcium decay rates: increased shortening and contraction/calcium decay rates

## CCCn1c(=O)c2[nH]c(-c3ccc(OCC(=O)Nc4ccc(C#N)cc4)cc3)nc2n(CCC)c1=O [MRS-1754, reference compound]
[2]
  impact of inhibitor pre-treatment alone on cardiovascular hemodynamics: Neither inhibitor pre-treatment alone has a significant impact

## CN(C(=O)CCCOc1ccc2[nH]c(=O)ccc2c1)C1CCCCC1 [cilostamide, reference compound]
[1]; Cil 1 μM alone
  percent sarcomere shortening, peak-Ca2+ transients and decay kinetics: rose and their decay kinetics accelerated
[1]; added to Fsk 1 μM
  Ca2+ transient decay: faster decay of the Ca2+ transient
  peak Ca2+ transient: increase
  sarcomere shortening: increase in sarcomere shortening
[1]; added to Iso
  peak-Ca2+: remained elevated over baseline
  sarcomere shortening: further increased sarcomere shortening
Myocyte cAMP
  cAMP: unaltered by addition of Cil
  whole cell cAMP: did not measurably increase whole cell cAMP

## CC(CCc1ccc(O)cc1)NCCc1ccc(O)c(O)c1 (stereo not drawn) [dobutamine, reference compound]
[3]; dobutamine 10 μg/kg/min alone
  PV loop area (stroke work) and contractility: increased PV loop area
Plasma cAMP and cGMP
  plasma cGMP: remains unchanged

## COC(=O)CCc1ccc(OCC(O)CNC(C)C)cc1 (stereo not drawn) [esmolol, esmolol HCl, reference compound]
[2]; esmolol dose as used
  cardiac responses to 10 μg/kg/min dobutamine: effectively blocked cardiac responses
[2]
  impact of inhibitor pre-treatment alone on cardiovascular hemodynamics: Neither inhibitor pre-treatment alone has a significant impact

## CC(C)NCC(O)c1ccc(O)c(O)c1 (stereo not drawn) [isoproterenol, reference compound]
[1]; isoproterenol 50 nM
  sarcomere shortening and peak Ca2+: increases both sarcomere shortening and peak Ca^2+
[1]; non-saturating dose of isoproterenol
  sarcomere shortening, peak-Ca2+ and relaxation times: increased sarcomere shortening and peak-Ca^2+, and quickened relaxation times
Myocyte cAMP
  whole cell cAMP: did not measurably increase whole cell cAMP
